According to patent publication US8420657B2 (Novartis AG, priority 2008, dated 2013):

Tests used:
[1] = target: T1, GST-JAK2(808-1132) (Homo sapiens, UniProt O60674); experiment: JAK2 kinase assay (Caliper mobility shift, LabChip 3000); type: biochemical
T1 construct: GST-JAK2(808-1132); purchased Invitrogen (Carlsbad, USA) #4288
Method in brief: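 Recombinant GST-JAK2(808-1132) kinase domain with FITC-labelled JAK3tide peptide substrate and ATP; 60 min at 30 °C, EDTA stop. Substrate/product ratio read by microfluidic mobility shift; compounds at 8 final concentrations, 10 to 0.003 μM.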

[2] = tested on: JAK2-dependent nuclear translocation of STAT5-GFP in U-2 OS osteosarcoma cells; experiment: STAT5 nuclear translocation assay (Cellomics), rhEpo stimulated U-2 OS STAT5-GFP cells; type: cell-based; conditions: Homo sapiens, U2OS; STAT5 translocation pathway
Source text: The medium-throughput (96-well format) cellular automated fluorescence microscopy Cellomics assay can be routinely used to assess the functional activation of Janus Kinases (JAKs), based on the nuclear translocation of their substrate, Signal Transducer and Activator of Transcription (STAT). Nuclear translocation can be monitored either in HT1080 fibrosarcoma cells stably transfected with STAT1 fused to Green Fluorescence Protein (GFP) or in U-2 OS osteosarcoma cells stably transfected with STAT5 fused to Green Fluorescence Protein (GFP). Stimulation of HT1080 cells with interferon-γ (IFN-γ) results in JAK1/JAK2-dependent nuclear translocation of STAT1-GFP, whereas stimulation of U-2 OS cells with recombinant human erythropoietin (rhEpo) results in JAK2-dependent nuclear translocation of STAT5-GFP, both of which can be quantified using the Cellomics Cyto/NucTrans software package. This assay may be used to provide an assessment of the nuclear-cytoplasmic differential (NCD) of STAT-GFP using Hoechst dye to define the boundaries of the nucleus.
U-2 OS osteosarcoma cells may be obtained from ATCC and can be cultured in standard RPMI medium supplemented with 10% FCS and 2 mM L-glutamine. Cells can be stably transfected with STAT5a-GFP using Lipofectamine following the manufacturers' protocol. 24 hours after transfection the medium can be replaced and selected in 400 μg/ml Geneticin. Subsequently, cells can be stably transfected with EpoR using Lipofectamine following the manufacturers' protocol. 24 hours after transfection the medium can be replaced and cells selected in 100 μg/ml Hygromycin B.
Compounds can be dissolved in DMSO to a final stock concentration of 10 mM and stored as aliquots at 4° C. Compounds may be pre-diluted in 100% DMSO at 10 mM, 3 mM 1 mM, 0.3 mM, 0.1 mM, 0.03 mM, 0.01 mM and 0.003 mM. Subsequently, compounds may be diluted in medium and added in 50 μl to the cells. The final compound concentrations tested may be 10 μM, 3 μM 1 μM, 0.3 μM, 0.1 μM, 0.03 μM, 0.01 μM and 0.003 μM and the final DMSO concentration can be 0.1%.
U-2 OS may be seeded at a cell density of 12,000 cells per well in clear-bottom black 96-well Packard View-Plates™. The following day, medium can be removed and replaced with medium containing either the vehicle (DMSO) or increasing concentrations of test compounds for 30 minutes at 37° C. Cells can then be stimulated for 1 hour by adding 10 μl per well of 50 U/ml rhEpo to obtain 5 U/ml of rhEpo as the final concentration. Following treatments, cells can fixed and processed as described above.
The plates can be read on a Cellomics® ArrayscanII automated fluorescence microscope plate reader equipped with a Mercury-Xenon white light illumination source and a Zeiss Axiovert inverted microscope, using the XF100 dichroic/emission filter cube and matching excitation filters, 10× magnification, and a 0.3 numerical aperture objective. Image acquisition and analysis can be performed using a customized protocol based on the ‘NuclearTranslocation’ Bioapplication. For each well, multiple images (fields) can be acquired until a minimum of 1000 cells are counted using two 2 channels: Channel 1 (Hoechst)=focus+nuclear mask, Channel 2 (GFP)=signal quantification in mask areas as outlined below. Nuclei may be first identified based on the Hoechst staining and a mask generated for each nucleus that then serves as a template to generate a circle (eroded inwards by 1 pixel) and a 3 pixel-wide collar-like ring (off-set outwards by 1 pixel), in which the nuclear and cytoplasmic intensity of GFP, respectively, are quantified in the corresponding channel. High content analysis yields numerous measurements per cell and the GFP intensity differential between the nuclear and the cytoplasmic masks may be chosen as a measure of sub-cellular STAT-GFP relocation. The resulting values may be averaged for all cells in the well to return a single measurement plus standard deviation. […]

[3] = tested on: JAK1/JAK2-dependent nuclear translocation of STAT1-GFP in HT1080 fibrosarcoma cells; experiment: STAT1 nuclear translocation assay (Cellomics), IFN-γ stimulated HT1080 STAT1-GFP cells; type: cell-based; conditions: Homo sapiens, HT-1080, STAT1 translocation pathway
Method in brief: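 HT1080 cells stably expressing STAT1-GFP, pre-treated 30 min with compound (10 μM–0.003 μM, 0.1% DMSO), then stimulated 2 h with 100 ng/ml IFN-γ, fixed and Hoechst-stained. Nuclear-cytoplasmic GFP differential imaged over ≥1000 cells/well, normalised to unstimulated and DMSO-stimulated wells for IC50.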

T1 sequence (O60674 808-1132): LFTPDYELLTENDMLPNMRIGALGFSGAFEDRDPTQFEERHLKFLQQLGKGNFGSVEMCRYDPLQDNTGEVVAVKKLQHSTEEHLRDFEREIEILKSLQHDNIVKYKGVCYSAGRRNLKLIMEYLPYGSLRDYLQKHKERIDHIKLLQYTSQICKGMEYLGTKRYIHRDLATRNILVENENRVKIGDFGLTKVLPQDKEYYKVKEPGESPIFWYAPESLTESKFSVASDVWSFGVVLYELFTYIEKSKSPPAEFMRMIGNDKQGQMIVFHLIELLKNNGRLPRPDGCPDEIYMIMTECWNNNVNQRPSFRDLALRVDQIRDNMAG

Row | IC50 [1] [nM] | IC50 [2] [nM] | IC50 [3] [nM] | SMILES
1 | ≤ 3 | 65.5 |  | Cc1ccc(Nc2ncc3ccn(-c4cc(F)c(CN5CCOCC5)c(F)c4)c3n2)cc1CN1CCNC(C)(C)C1 [Example 385, [7-(3,5-Difluoro-4-morpholin-4-ylmethyl-phenyl)-7H-pyrrolo[2,3-d]pyrimidin-2-yl]-[3-(3,3-dimethyl-piperazin-1-ylmethyl)-4-methyl-phenyl]-amine]
2 | ≤ 3 | 5.3 |  | Fc1cc(-n2ccc3cnc(Nc4ccc([C@@H]5CNCCN5)cc4)nc32)cc(F)c1CN1CCOCC1 [Example 475, [7-(3,5-Difluoro-4-morpholin-4-ylmethyl-phenyl)-7H-pyrrolo[2,3-d]pyrimidin-2-yl]-((R)-4-piperazin-2-yl-phenyl)-amine]
3 | ≤ 3 | 15 |  | O=C1CN(c2ncc(Nc3ncc4ccn(-c5cc(F)c(CN6CCOCC6)c(F)c5)c4n3)cc2Cl)CCN1 [Example 491, 4-{3-Chloro-5-[7-(3,5-difluoro-4-morpholin-4-ylmethyl-phenyl)-7H-pyrrolo[2,3-d]pyrimidin-2-ylamino]-pyridin-2-yl}-piperazin-2-one]
4 | ≤ 3 | 68 |  | Fc1cc(-n2ccc3cnc(Nc4ccnc(OCC5CCNCC5)c4)nc32)cc(F)c1CN1CCOCC1 [Example 392, [7-(3,5-Difluoro-4-morpholin-4-ylmethyl-phenyl)-7H-pyrrolo[2,3-d]pyrimidin-2-yl]-[2-(piperidin-4-ylmethoxy)-pyridin-4-yl]-amine]
5 | ≤ 3 | 3.9 |  | Fc1cc(-n2ccc3cnc(Nc4ccc([C@H]5COCCN5)cc4)nc32)cc(F)c1CN1CCOCC1 [Example 511, [7-(3,5-Difluoro-4-morpholin-4-ylmethyl-phenyl)-7H-pyrrolo[2,3-d]pyrimidin-2-yl]-((S)-4-morpholin-3-yl-phenyl)-amine]
6 | ≤ 3 | 28.5 |  | Cc1ccc(Nc2ncc3ccn(-c4cc(F)c(CN5CCOCC5)c(F)c4)c3n2)cc1Cn1cccn1 [Example 413, [7-(3,5-Difluoro-4-morpholin-4-ylmethyl-phenyl)-7H-pyrrolo[2,3-d]pyrimidin-2-yl]-(4-methyl-3-pyrazol-1-ylmethyl-phenyl)-amine]
7 | 6.2 | 79.5 |  | Cc1ccc(Nc2ncc3ccn(-c4cc(F)c(CN5CCOCC5)c(F)c4)c3n2)cc1C(=O)N1C[C@@H](C)N[C@@H](C)C1 [Example 452, {5-[7-(3,5-Difluoro-4-morpholin-4-ylmethyl-phenyl)-7H-pyrrolo[2,3-d]pyrimidin-2-ylamino]-2-methyl-phenyl}-(cis-3,5-dimethyl-piperazin-1-yl)-methanone]
8 | ≤ 3 | 51 |  | Cc1cc(Nc2ncc3ccn(-c4cc(F)c(CN5CCOCC5)c(F)c4)c3n2)cnc1N1CCNCC1=O [Example 495, 1-{5-[7-(3,5-Difluoro-4-morpholin-4-ylmethyl-phenyl)-7H-pyrrolo[2,3-d]pyrimidin-2-ylamino]-3-methyl-pyridin-2-yl}-piperazin-2-one]
9 | ≤ 3 | 34.5 |  | Fc1cc(-n2ccc3cnc(Nc4ccc(CN5CCNC(C(F)(F)F)C5)cc4)nc32)cc(F)c1CN1CCOCC1 (racemic) [Example 476, [7-(3,5-Difluoro-4-morpholin-4-ylmethyl-phenyl)-7H-pyrrolo[2,3-d]pyrimidin-2-yl]-[4-(3-trifluoromethyl-piperazin-1-ylmethyl)-phenyl]-amine]
10 | ≤ 3 | 2.8 |  | Cc1cc(Nc2ncc3ccn(-c4cc(F)c(CN5CCOCC5)c(F)c4)c3n2)ccc1[C@H]1CCCN1 [Example 346, [7-(3,5-Difluoro-4-morpholin-4-ylmethyl-phenyl)-7H-pyrrolo[2,3-d]pyrimidin-2-yl]-((R)-3-methyl-4-pyrrolidin-2-yl-phenyl)-amine]
11 | ≤ 3 | 4.2 |  | Cc1ccc(Nc2ncc3ccn(-c4cc(F)c(CN5CCOCC5)c(F)c4)c3n2)cc1Cn1cnnc1 [Example 414, [7-(3,5-Difluoro-4-morpholin-4-ylmethyl-phenyl)-7H-pyrrolo[2,3-d]pyrimidin-2-yl]-(4-methyl-3-[1,2,4]triazol-4-ylmethyl-phenyl)-amine]
12 | 24 | 152 |  | O=C(c1cc(Nc2ncc3ccn(-c4cc(F)c(CN5CCOCC5)c(F)c4)c3n2)ccn1)N1CCOC2(COC2)C1 [Example 362, {4-[7-(3,5-Difluoro-4-morpholin-4-ylmethyl-phenyl)-7H-pyrrolo[2,3-d]pyrimidin-2-ylamino]-pyridin-2-yl}-(2,5-dioxa-8-aza-spiro[3.5]non-8-yl)-methanone]
13 | 7.1 |  | 130 | Cn1cc(Nc2ncc3ccn(-c4ccc(C(=O)N5CCOCC5)cc4)c3n2)cn1 [Example 253, {4-[2-(1-Methyl-1H-pyrazol-4-ylamino)-pyrrolo[2,3-d]pyrimidin-7-yl]-phenyl}-morpholin-4-yl-methanone]
14 | 3.7 |  | 750 | CN1CCN(C(=O)c2ccc(Nc3ncc4ccn(-c5ccc(S(C)(=O)=O)cc5)c4n3)cc2C(F)(F)F)CC1 [Example 72, {4-[7-(4-Methanesulfonyl-phenyl)-7H-pyrrolo[2,3-d]pyrimidin-2-ylamino]-2-trifluoromethyl-phenyl}-(4-methyl-piperazin-1-yl)-methanone]
15 | < 3 |  | 125 | O=S1(=O)CCN(Cc2c(F)cc(-n3ccc4cnc(Nc5cccnc5)nc43)cc2F)CC1 [Example 182, {7-[4-(1,1-Dioxido-thiomorpholin-4-ylmethyl)-3,5-difluoro-phenyl]-7H-pyrrolo[2,3-d]pyrimidin-2-yl}-pyridin-3-yl-amine]
16 | 230 |  | 10700 | COc1cc(Nc2ncc3cc(C)n(-c4ccc(CN5CCOCC5)c(F)c4)c3n2)ccc1F [Example 164, (4-Fluoro-3-methoxy-phenyl)-[7-(3-fluoro-4-morpholin-4-ylmethyl-phenyl)-6-methyl-7H-pyrrolo[2,3-d]pyrimidin-2-yl]-amine]
17 | 4.3 |  | 815 | Cc1ccc(Nc2ncc3ccn(-c4ccc(C(=O)N5CCS(=O)(=O)CC5)cc4)c3n2)cn1 [Example 249, (1,1-Dioxido-thiomorpholin-4-yl)-{4-[2-(6-methyl-pyridin-3-ylamino)-pyrrolo[2,3-d]pyrimidin-7-yl]-phenyl}-methanone]
18 | 8.3 |  | 310 | CC(C)Oc1ccc(Nc2ncc3ccn(-c4ccc(CN5CCOCC5)cc4)c3n2)cc1 [Example 109, (4-Isopropoxy-phenyl)-[7-(4-morpholin-4-ylmethyl-phenyl)-7H-pyrrolo[2,3-d]pyrimidin-2-yl]-amine]
19 | 10.5 |  | 666 | CC(C)Oc1ccc(Nc2ncc3ccn(-c4ccc(C(=O)N5CCOCC5)c(F)c4)c3n2)cn1 [Example 226, {2-Fluoro-4-[2-(6-isopropoxy-pyridin-3-ylamino)-pyrrolo[2,3-d]pyrimidin-7-yl]-phenyl}-morpholin-4-yl-methanone]
